Assay results reported in PubChem BioAssay AID489024 (Sanford-Burnham Center for Chemical Genomics, 2010).
Calls of active or inactive are those of the source.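 Rule for the calls: active = compounds whose mean EC50, the dose giving half the maximal reporter activation, is at or below a set limit; inactive = the rest.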

Biological target: CHO-CHOP luciferase reporter, UPR activation, luminescence
Assay: activators of PERK-eIF2a-CHOP UPR arm, confirmation, CHO-CHOP cells, luciferase luminescence (AID 489024);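 note: compounds added alone to reporter cells with no tunicamycin stress co-treatment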

Compound: O=C(N/N=C/c1ccccn1)c1ccc(Cl)c(Cl)c1
- EC50: 2.93 µM

Compound: COc1ccc(-c2cc(-c3ccccc3)c(C#N)c(S(C)(=O)=O)n2)cc1
- EC50: 5.18 µM

Compound: Oc1ccc(-c2nc(-c3ccc(O)c(O)c3)cs2)cc1
- EC50: 9 µM

Compound: O=C(/C=C/c1ccco1)NC(=S)Nc1ccc(O)c(-c2nc3ccccc3s2)c1
- EC50: 11.8 µM

Compound: CCCN1Cc2cccc(C(=O)Nc3ccc(-c4nc5ccccc5[nH]4)cc3)c2C1=O
- EC50: > 80 µM (inactive)

Compound: C[C@@H]1C[C@@H]2O[C@H]2/C=C\C=C\C(=O)Cc2c(Cl)c(O)cc(O)c2C(=O)O1
- EC50: 5.32 µM

Compound: COc1ccc(OC)c(N=Cc2c(O)c3ccccc3oc2=O)c1
- EC50: 7.55 µM

Compound: Cc1nc([N+](=O)[O-])c(Br)n1CC(=O)c1ccc2ccccc2c1
- EC50: > 80 µM (inactive)

Compound: CC(C)(C)c1ccc(/C=C(\c2nc3ccccc3[nH]2)S(=O)(=O)c2ccccc2)cc1
- EC50: 7.17 µM

Compound: O=C(Oc1c(CN2CCOCC2)cc(Cl)c2cccnc12)c1ccccc1F
- EC50: 18.2 µM

Compound: O=C(Nc1ccc(-c2nc3cc(NC(=O)c4cccs4)ccc3o2)cc1)c1cccs1
- EC50: 6 µM

Compound: COc1ccc(/C=C/c2nc3cc(-c4ccccc4)ccc3o2)cc1O
- EC50: 12.7 µM

Compound: COc1ccc(OC)c(/C=C/C(=O)N2C(=O)c3cccc(N)c3C2=O)c1
- EC50: inactive

Compound: Cn1c2ccccc2c2cc(/C=N/NC(=O)c3cc(O)ccc3O)ccc21
- EC50: 5.37 µM

Compound: Cc1c(C(=O)c2no[n+]([O-])c2C(=O)c2cnn(C)c2C)cnn1C
- EC50: > 80 µM (inactive)

Compound: S=C(Nc1ccccc1)Nc1nccs1
- EC50: 17.5 µM

Compound: Oc1cc(-c2ccncc2)cc2cccnc12
- EC50: > 80 µM (inactive)

Compound: Oc1c(Cl)cc(CN2CCCCC2)c2cccnc12
- EC50: 15.2 µM

Compound: Cc1ccc(C(=O)C(C(=O)/C=C/c2ccccc2)=C2SCCCS2)cc1
- EC50: 14.6 µM

Compound: Oc1c(CN2CCCCC2)cc(Br)c2cccnc12
- EC50: 10.6 µM

Compound: Cc1nn(-c2ccccc2)c(C)c1/C=N/NC(=O)CSc1nc2ccccc2c(=O)n1-c1ccc(Br)cc1
- EC50: 9.85 µM

Compound: Cc1ccc(-c2nnc(-c3ccc(NC(=O)c4cccs4)cc3)o2)cc1
- EC50: 16 µM

Compound: CCSC1(SCC)N=C(N)C2(C#N)C(c3ccc(OC)c(OC)c3OC)C12C#N (stereo not given)
- EC50: 14.7 µM

Compound: CCOC(=O)C(=Cc1ccc(F)cc1)C(=O)OCC
- EC50: > 80 µM (inactive)

Compound: Cc1cccc(/C=C/C(=O)c2ccc([N+](=O)[O-])o2)c1
- EC50: 7.44 µM

Compound: CCOC(=O)c1cnc(-n2nc(C)cc2C)nc1NC1CCCCC1
- EC50: > 80 µM (inactive)

Compound: Cc1nc(NC(=O)/C=C/c2ccccc2)n[nH]1
- EC50: > 80 µM (inactive)

Compound: Cc1cc(NC(=O)c2cc(-c3ccccn3)nc3ccc(Br)cc23)no1
- EC50: > 80 µM (inactive)

Compound: Brc1ccc(-c2ccc(/C=N/Nc3nncc(-c4ccccc4)n3)o2)cc1
- EC50: 19 µM

Compound: O=C(Oc1c(CN2CCOCC2)cc(Cl)c2cccnc12)c1ccc(F)cc1
- EC50: inactive

Compound: Oc1ccc(/C=N/Nc2cc(N3CCCC3)nc(N3CCCC3)n2)cc1O
- EC50: 13.2 µM

Compound: CCCN(CCC)C(=O)c1cc([N+](=O)[O-])cc2c1-c1ccc([N+](=O)[O-])cc1C2=C(C#N)C#N
- EC50: 13.3 µM

Compound: CC(C)N=c1scc(-c2cccs2)n1/N=C/c1ccc(O)c(O)c1O
- EC50: 11.6 µM

Compound: O=c1cc(C(Cl)(Cl)Cl)oc2c1ccc1ccccc12
- EC50: > 80 µM (inactive)

Compound: CCOc1ccc2c(c1)C(=NNC(=O)c1ccncc1)c1cc(OCC)ccc1-2
- EC50: 8.63 µM

Compound: COCCN1CSC(=S)N(Cc2ccco2)C1
- EC50: > 80 µM (inactive)

Compound: Cc1cccc(N=Nc2ccc(O)c3ncccc23)c1
- EC50: 7.28 µM

Compound: S=C(Nc1ccccc1)c1ccccn1
- EC50: 9.11 µM

Compound: Nc1nc(CC(=O)CSc2ccc(Cl)cc2)nc(Nc2ccc(F)cc2)n1
- EC50: inactive

Compound: CN1CSC(=S)N(C)C1
- EC50: > 80 µM (inactive)

Compound: O=C(N/N=C/c1ccccn1)c1cc([N+](=O)[O-])cc([N+](=O)[O-])c1
- EC50: inactive

Compound: COC(=O)C1=C(C)N(c2ccc(C)c(C)c2)/C(=C/c2cccs2)C1=O
- EC50: > 80 µM (inactive)

Compound: CCCCOC(=O)/C=C\C(=O)NC(N)=O
- EC50: 13.8 µM

Compound: N#CC1(C#N)COC23CCCCC2C1(C#N)C(=N)O3 (stereo not given)
- EC50: 19.3 µM

Compound: Cc1ccc(C(=O)NC(C#N)=C(Cl)Cl)cc1
- EC50: > 80 µM (inactive)

Compound: C/C(=N\NC(=O)COc1ccccc1-c1ccccc1)c1ccccn1
- EC50: 6.49 µM

Compound: COc1ccc(C(=O)Sc2ccc(Cl)cc2)cc1OC
- EC50: 9.38 µM

Compound: Cc1ccc(/C=C/C(=O)c2ccc([N+](=O)[O-])o2)cc1
- EC50: 6.46 µM

Compound: COc1cc(/C=C(/C#N)c2nc3ccccc3[nH]2)ccc1OCC(=O)Nc1ccccc1C
- EC50: 3.65 µM

Compound: COc1cc(CN2CCN(c3cc(C)ccc3C)CC2)ccc1O
- EC50: 11.7 µM

Compound: Cc1ccc(C)c(NC(=O)/C(C#N)=C/c2cn(CC(=O)NCc3ccco3)c3ccccc23)c1
- EC50: > 80 µM (inactive)

Compound: Oc1c(C(c2ccccn2)N2CCC(Cc3ccccc3)CC2)cc(Cl)c2cccnc12 (stereo not given)
- EC50: inactive

Compound: CCOC(=O)C(=CNc1nc(-c2ccccc2)c(C(=O)Nc2ccc(-c3ccccc3)cc2)s1)C(=O)OCC
- EC50: inactive

Compound: Cc1ccn2cc(-c3ccc(O)c(O)c3)nc2c1
- EC50: 5.31 µM

Compound: CCOC(=O)C(=Cc1ccc(-n2ccnc2)cc1)C(=O)OCC
- EC50: 9.57 µM
